In patent US20040105778A1, “Gamma irradiation of solid nanoparticulate active agents” (Elan Pharma International Limited, priority 2002, published 2004):

Experiment: Gamma irradiation dosing studies, naproxen assay and degradants
Type: physicochemical

- Naproxen Assay Average (Control (0 kGy)): 99.07 % w/w
- Naproxen Assay Relative to Control (Control (0 kGy)): 100.00
- Naproxen Assay Average (gamma dose 5 kGy): 96.38 % w/w
- Naproxen Assay Relative to Control (gamma dose 5 kGy): 97.28
- Naproxen Assay Average (gamma dose 10 kGy): 100.82 % w/w
- Naproxen Assay Relative to Control (gamma dose 10 kGy): 101.77
- Naproxen Assay Average (gamma dose 15 kGy): 100.44 % w/w
- Naproxen Assay Average (gamma dose 25 kGy): 100.08 % w/w
- Naproxen Assay Average (gamma dose 30 kGy): 100.47 % w/w
- Naproxen Assay Average (gamma dose 40 kGy): 99.14 % w/w
- Naproxen Assay Relative to Control (gamma dose 40 kGy): 100.07
- Naproxen Assay Average (gamma dose 50 kGy): 99.49 % w/w
- Naproxen Assay Relative to Control (gamma dose 50 kGy): 100.42
SMILES: COc1ccc2cc([C@H](C)C(=O)O)ccc2c1 [Naproxen (API), naproxen]
